Results from patent publication US10358663B2, “Method of production of 2,4-dihydroxybutyric acid” (ADISSEO FRANCE S.A.S., priority 2010, dated 2019).
Changes are numbered by the printed parent chain.

What was measured:
malic enzyme = target: T1, malic enzyme (Rattus norvegicus, UniProt P13697); conditions: cited from earlier work
T1 sequence (P13697 1-572): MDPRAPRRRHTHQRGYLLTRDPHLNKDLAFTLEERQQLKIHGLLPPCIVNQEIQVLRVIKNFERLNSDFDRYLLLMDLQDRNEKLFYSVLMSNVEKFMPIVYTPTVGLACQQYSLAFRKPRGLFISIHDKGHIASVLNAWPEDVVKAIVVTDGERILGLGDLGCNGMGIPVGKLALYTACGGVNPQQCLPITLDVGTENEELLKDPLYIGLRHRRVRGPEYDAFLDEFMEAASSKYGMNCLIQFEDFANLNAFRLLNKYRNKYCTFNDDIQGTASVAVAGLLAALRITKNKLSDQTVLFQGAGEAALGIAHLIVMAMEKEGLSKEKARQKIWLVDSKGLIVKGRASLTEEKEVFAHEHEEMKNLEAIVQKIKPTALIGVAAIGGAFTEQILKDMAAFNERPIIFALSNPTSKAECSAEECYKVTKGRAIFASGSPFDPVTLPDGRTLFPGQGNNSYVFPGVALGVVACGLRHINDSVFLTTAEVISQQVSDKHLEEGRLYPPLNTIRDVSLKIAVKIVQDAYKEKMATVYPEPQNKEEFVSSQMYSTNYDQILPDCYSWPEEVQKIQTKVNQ

[1] = target: E. coli aspartate kinase LysC variant E119G E250K, SEQ ID NO: 39 (Escherichia coli, UniProt P08660, E119G/E250K); experiment: Lysine inhibition of malate kinase activity, LysC E119G E250K; assay type: biochemical; conditions: elevated lysine concentrations
Protocol: (§1) The assay mixture contained 50 mM Hepes (pH 7.5), 50 mM KCl, 5 mM MgCl2, 0.24 mM NADH, 0.96 mM ATP, 0.96 mM PEP, 9 μg/mL of lactate dehydrogenase (Sigma, L2500), 12.4 μg/mL pyruvate kinase (Sigma, P1506), and appropriate amounts of purified aspartate (malate) kinase. Reactions were started by adding 50 mM (L)-aspartate or (L)-malate. Enzymatic assays were carried out at 30° C. in 96-well flat bottomed microtiter plates in a final volume of 250 μL. The reactions were followed by the characteristic absorption of NADH at 340 nm in a microplate reader (BioRad 680XR).
(§2) Expression and purification of enzymes: Protein expression for the His-tagged enzymes LysC E119G, LysC E119G E250K, LysC E119G T344M, LysC E119G S345L, LysC E119G T352I was carried out as described in Example 1.
(§3) Enzymatic assay: Malate kinase activities were assayed as described in Example 1. Lysine concentration in the reaction buffer was varied.

[2] = target: E. coli aspartate kinase LysC variant E119G T344M, SEQ ID NO: 41 (Escherichia coli, UniProt P08660, E119G/T344M); experiment: Lysine inhibition of malate kinase activity, LysC E119G T344M; assay type: biochemical; conditions: elevated lysine concentrations
Protocol: as §1, §2, §3

[3] = target: E. coli aspartate kinase LysC variant E119G S345L, SEQ ID NO: 45 (Escherichia coli, UniProt P08660, E119G/S345L); experiment: Lysine inhibition of malate kinase activity, LysC E119G S345L; assay type: biochemical; conditions: elevated lysine concentrations
Protocol: as §1, §2, §3

[4] = target: T2, Metallosphaera sedula succinic semialdehyde reductase Ms-SSR variant H39R N43H, SEQ ID NO: 81 (Metallosphaera sedula, UniProt A4YGN0, H39R/N43H); experiment: Malate semialdehyde reductase assay, Ms-SSR H39R N43H; assay type: biochemical; conditions: pH 7.5, 30° C.
T2 sequence (A4YGN0 1-360 H39R/N43H): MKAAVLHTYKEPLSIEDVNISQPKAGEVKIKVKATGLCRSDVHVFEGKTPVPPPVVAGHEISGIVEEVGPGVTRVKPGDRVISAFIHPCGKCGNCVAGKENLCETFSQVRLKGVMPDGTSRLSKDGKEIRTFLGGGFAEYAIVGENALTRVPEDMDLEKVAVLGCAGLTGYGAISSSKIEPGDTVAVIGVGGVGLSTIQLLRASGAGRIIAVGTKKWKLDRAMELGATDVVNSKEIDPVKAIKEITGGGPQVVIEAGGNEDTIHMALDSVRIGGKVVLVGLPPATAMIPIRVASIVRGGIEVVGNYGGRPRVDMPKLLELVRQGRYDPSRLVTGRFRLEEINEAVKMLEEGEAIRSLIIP
Protocol: (§4) Test for Malate Semialdehyde Reductase Activity: Reaction: (L)-Malate semialdehyde+NAD(P)H→(L)-2,4-dihydroxybutyric acid+NAD(P)
(§5) The assay mixture contained 200 mM Hepes (pH 7.5), 50 mM KCl, 5 mM MgCl2, 0.24 mM NADH or NADPH, and appropriate amounts of purified enzyme. Reactions were started by adding 10 mM (L)-malate semialdehyde (malate semialdehyde was prepared freshly for each test, see Example 4). Enzymatic assays were carried out at 30° C. in 96-well flat bottomed microtiter plates in a final volume of 250 μL. The reactions were followed by the characteristic absorption of NAD(P)H at 340 nm in a microplate reader (BioRad 680XR).
(§6) Site-directed mutagenesis was carried out using the oligonucleotide pairs listed in Table 8 and the pMs-SSR plasmid as the template. Point mutations to change the amino acid sequences were introduced by PCR (Phusion 1U, HF buffer 20% (v/v), dNTPs 2.5 mM, direct and reverse primers 1 μM each, template plasmid 200 ng, water). When possible, plasmids created by PCR contained new restriction sites (introduced using silent mutations) in addition to the functional mutation to facilitate identification of mutated clones. The PCR products were digested by DpnI at 37° C. for 1 h to remove template DNA, and transformed into NEB 5-alpha competent E. coli cells (NEB). […]

[5] = target: T3, Metallosphaera sedula succinic semialdehyde reductase Ms-SSR, wild type, SEQ ID NO: 76 (Metallosphaera sedula, UniProt A4YGN0); experiment: Malate semialdehyde reductase assay, Ms-SSR wild type; assay type: biochemical; conditions: pH 7.5, 30° C.
T3 sequence (A4YGN0 1-360): T2 sequence (A4YGN0 1-360 H39R/N43H) with R39H, H43N
Protocol: as §4, §5

[6] = target: T4, Metallosphaera sedula succinic semialdehyde reductase Ms-SSR variant H39R, SEQ ID NO: 225 (Metallosphaera sedula, UniProt A4YGN0, H39R); experiment: Malate semialdehyde reductase assay, Ms-SSR H39R; assay type: biochemical; conditions: pH 7.5, 30° C.
T4 sequence (A4YGN0 1-360 H39R): T2 sequence (A4YGN0 1-360 H39R/N43H) with H43N
Protocol: as §4, §5, §6

[7] = target: T5, Metallosphaera sedula succinic semialdehyde reductase Ms-SSR variant N43H, SEQ ID NO: 227 (Metallosphaera sedula, UniProt A4YGN0, N43H); experiment: Malate semialdehyde reductase assay, Ms-SSR N43H; assay type: biochemical; conditions: pH 7.5, 30° C.
T5 sequence (A4YGN0 1-360 N43H): T2 sequence (A4YGN0 1-360 H39R/N43H) with R39H
Protocol: as §4, §5, §6

Chain of E. coli aspartate kinase LysC variant E119G T344M, SEQ ID NO: 41 (P08660 whole entry E119G/T344M): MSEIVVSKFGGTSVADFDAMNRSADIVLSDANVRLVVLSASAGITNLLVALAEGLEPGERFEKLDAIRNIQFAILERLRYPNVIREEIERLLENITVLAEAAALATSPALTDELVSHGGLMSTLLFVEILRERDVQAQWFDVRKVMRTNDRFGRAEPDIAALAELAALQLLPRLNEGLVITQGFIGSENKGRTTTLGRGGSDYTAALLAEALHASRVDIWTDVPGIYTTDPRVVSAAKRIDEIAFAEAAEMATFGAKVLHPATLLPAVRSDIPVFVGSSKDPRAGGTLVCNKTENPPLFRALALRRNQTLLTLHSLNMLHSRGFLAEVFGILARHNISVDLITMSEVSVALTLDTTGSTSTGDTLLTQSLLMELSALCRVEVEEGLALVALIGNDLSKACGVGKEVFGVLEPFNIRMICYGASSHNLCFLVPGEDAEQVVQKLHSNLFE
Chain of E. coli aspartate kinase LysC variant E119G S345L, SEQ ID NO: 45 (P08660 whole entry E119G/S345L): as the sequence (P08660 whole entry E119G/T344M) above, with M344T, S345L counted along it
Chain of E. coli aspartate kinase LysC variant E119G E250K, SEQ ID NO: 39 (P08660 whole entry E119G/E250K): as the sequence (P08660 whole entry E119G/T344M) above, with E250K, M344T counted along it

Which “Mode of inhibition of malic enzyme” value (malic enzyme) does the source give for `O=C(O)C(O)CCO` (centres unmarked) [DHB, 2,4-dihydroxybutyric acid] here?
Its value is “competitive inhibitor”.

Which “sensitivity of malate kinase activity to lysine” value (shortened to “sensitivity”) [1] does the source give for `NCCCC[C@H](N)C(=O)O` [lysine] here?
The value was “largely insensitive”.

And the “sensitivity” value [2]?
Its value is “largely insensitive”.

And the “sensitivity” value [3]?
Its value is “largely insensitive”.

Which results are given for `O=CC[C@H](O)C(=O)O` [malate semialdehyde, (L)-malate semialdehyde]?
Maximum activity [4]: 4.7 μmol/(min* mgprot); Maximum activity [5]: 4.9 μmol/(min* mgprot); Maximum activity [6]: 1.7 μmol/(min* mgprot); Maximum activity [7]: 4.3 μmol/(min* mgprot)
